# Data: patent publication US11214561B2, “Histone methyltransferase EZH2 inhibitor, preparation method and pharmaceutical use thereof” (ANCUREALL PHARMACEUTICAL (SHANGHAI) CO., LTD., priority 2017, dated 2022)
# Columns and labels:
# [1] = system: EZH2 A677G mutant positive-expressing tumor cell line Pfeiffer; test: In vivo growth inhibition, Pfeiffer subcutaneous transplantation model; conditions: for Tumor volume: 200 mg/kg orally once a day
# Excerpt: Test Example 2 Determination of the in vivo growth inhibition activity of the present compounds on EZH2 A677G mutant positive-expressing tumor cell line Pfeiffer NOD/SCID mice were subcutaneously inoculated with human diffuse large cell B lymphoma lymphocyte Pfeiffer (ATCC) expressing EZH2 A677G mutant protein to establish a subcutaneous transplantation model of human B cell lymphoma.
# Experimental animals: NOD/SCID mice, female, 9 weeks (weeks of age when tumor cell inoculation), average weight 20.3 g, 18 mice, were purchased from Shanghai Lingchang biotechnology co., Ltd. with animal certificate No.: 2002007656. The breeding environment was SPF grade.
# Test samples: the present example compounds 34 (purity: 99.03%) and 35 (purity: 97.6%), solid powder, preserved at −20° C.
# Pfeiffer cells were cultured in RPM1640 medium containing 10% of fetal bovine serum. Log-phase Pfeiffer cells were collected and resuspended with PBS to 1×10^8 cells per ml for subcutaneous inoculation in NOD/SCID mice.
# All the mice were treated with Co60 irradiation at a dose of 200 rad the day before the inoculation, and 1×10^7 Pfeiffer cells were then subcutaneously inoculated at the right back, and the cells were resuspended in 1:1 PBS and Matrigel (0.1 ml/mouse). When the average tumor volume was 134 mm^3, the mice were randomly grouped according to tumor size. Tumor volume was calculated as: long diameter×short diameter^2/2. The day of tumor cells inoculation was defined as day 0. The test was divided into solvent control group and drug treatment group (compound 34 group and compound 35 group). 6 mice for each group were given orally once a day for a total of 4 weeks. Efficacy was assessed based on relative tumor growth inhibition value (TGI), and safety was assessed based on animal weight change and mortality.
# Preparation of test samples: compounds 34 or 35 was weighed and mixed with ultrapure water, and methanesulfonic acid was added for clarification. The PH value was about 1.64 at this moment. 4M NaOH was then added to adjust the PH to 3.5 and bring to volume by ultrapure water, the final concentrations was 20 mg/ml. Determination standard: TGI (%): […].
# T/C % refers to the relative value-added rate of tumor, that is, the percentage value of relative tumor volume or tumor weight for the treatment group and the control group at a certain point. T and C were the relative tumor volumes (RTV) of the treatment group and the control group at a specific point, respectively. The calculation formula is as follows: T/C%=TRTV/CRTV*100% TRTV: mean RTV of the treatment group; CRTV: mean RTV of solvent control group; RTV=Vt/V0, V0 was the tumor volume of the animal when grouping, Vt was the tumor volume of the animal after treatment. Statistical analysis: all test results were defined as mean tumor volume±SEM (mean standard error). Tumor volume data of 27 days after the start of treatment were selected for statistical analysis among different groups, and independent sample T test was used to compare whether there were significant differences in tumor volume between the treatment group and the control group. All data were analyzed using SPSS 18.0. P<0.05 was considered as significant difference.
# [2] = In vivo pharmacokinetics in rats; conditions: SD rats
# Protocol: Test Example 4 Study of In Vivo Pharmacokinetics of the Present Compounds in Rats
# Male SD rats (Shanghai Sippr-BK Experimental Animal Co., Ltd) were purchased and kept in Shanghai University of Traditional Chinese Medicine animal center (approved by the ethics committee of Shanghai University of Traditional Chinese Medicine) for 7 days. The rats were randomly divided into 4 groups (˜220 g), 3 rats for each group. Animals were administered intravenously (iv) and orally (po). The rats in po group were starved for 12 hours before administration. After administration, blood was collected from the orbital venous plexus at 0 min (before administration), 2 min, 5 min, 15 min, 30 min, 1 h, 2 h, 4 h, 6 h, 8 h and 24 h. About 200 ul of blood was collected at each time point, and were collected in 1.5 ml centrifuge tube containing heparin sodium. The upper blood […] were collected by centrifugation (8000 rpm, 3 min) and stored at −80° C.
# Preparation of test samples: 125.0 mg compound 34 or compound 35 was weighed and added with 4 ml ultrapure water, and 25 ul methanesulfonic acid was added with stirring. The mixture was further stirred until clear and transparent (pH ˜3.32). 1 ml of the above solution was added with 4 ml of ultra-pure water to obtain 5 mg/ml of compound 34 or compound 35 solution (pH=3.5).
# Dose and mode of administration: single oral dose (100 mpk) and single intravenous dose (5 mpk).
# Administration volume: 4 ml/kg (orally), 1 ml/kg (intravenously).
# The plasma concentration of the compound was determined by LC-MS/MS (AB scexqtrap@4500 LCMS/MS system). Pharmacokinetic parameters were calculated by WinNonlin (a professional software). The experiment was repeated once.
# Karpas-422 (EZH2 Y641N) = test: In vitro 50% growth inhibition (GI50), MTT/CCK8, Karpas-422 cells; format: cell-based; conditions: Homo sapiens, KARPAS-422, 144 h; Drug treatment for 6 days
# Excerpt: (§1) In the present invention, a representative tumor cell line was selected to determine the cell growth inhibition activity of the present compound. Cell culture conditions and methods were in accordance with the requirements for each cell lines. The cells were subcultured in vitro for less than 3 generations each time, and as required, monoclone purification and identification of cell lines could be carried out.
# (§2) The cell culture media used were RPMI1640 (Gibco) comprising 5-20% of fetal bovine serum (Gibco), 1% of double-antibiotic and 2 mM of glutamine.
# (§3) Suspension culture cells were collected by centrifugation (1700 rpm, 3 minutes), and the supernatant was discarded and the cells were counted. According to each cell growth cycle, different concentrations of cells were prepared (1-10×10^4 cells per ml) and added to 96-well plates (Corning) with 100 μl per well, and then incubated overnight at 37° C., 5% CO2. The next day, the test compound was added to the cultured cells (2 wells in parallel). The final concentration of the solvent was less than 1/1,000. The cells were further cultured for 6 to 12 days and assayed by MTT.
# (§4) The compound was stored at a concentration of 10 mM at −20° C. and diluted to two-fold or 10-fold series prior to use.
# (§5) For the suspension culture cells, CCK8 was directly added to 10% of the final concentration. The cells were continually incubated for […].
# (§6) The experiments were repeated 3 times and a statistical analysis of data was conducted.
# Pfeiffer (EZH2 A677G) = test: In vitro 50% growth inhibition (GI50), MTT/CCK8, Pfeiffer cells; format: cell-based, Human; conditions: Homo sapiens, Pfeiffer, 240 h; Drug treatment for 10 days
# Excerpt: as §1, §2, §3, §4, §5, §6
# SU-DHL-8 (EZH2 WT) = test: In vitro 50% growth inhibition (GI50), MTT/CCK8, SU-DHL-8 cells; format: cell-based; conditions: Homo sapiens, SU-DHL-8, 144 h; Drug treatment for 6 days
# Excerpt: as §1, §2, §3, §4, §5, §6
# [3] = 200 mg/kg, 27th day after the start of treatment
# [4] = 200 mg/kg, 27 days after the start of treatment
structure (smiles),measurement,setting,value
"C=CC(=O)N1CCC(N(CC)c2cc(-c3ccc(CN4CCOCC4)cc3)cc(C(=O)NCc3c(C)cc(C)[nH]c3=O)c2C)CC1 [Example 35, N-(4,6-dimethyl-2-oxo-1,2-dihydro-pyridin-3-ylmethyl)-5-[(1-acryloyl-piperidin-4-yl)-ethyl-amino]-4-methyl-4′-(morpholin-4-ylmethyl)-[1,1′-biphenyl]-3-carboxamide]",body weight during the treatment,[1]; 200 mg/kg dose,maintained a stable body weight
same,tolerability,[1]; 200 mg/kg dose,well tolerated
same,Tumor volume,[1]; Day 0 after the start of treatment,134 ± 9 mm^3
same,Tumor volume,[1]; Day 3 after the start of treatment,324 ± 38 mm^3
same,Tumor volume,[1]; Day 7 after the start of treatment,681 ± 72 mm^3
same,Tumor volume,[1]; Day 10 after the start of treatment,635 ± 88 mm^3
same,Tumor volume,[1]; Day 14 after the start of treatment,710 ± 87 mm^3
same,Tumor volume,[1]; Day 17 after the start of treatment,751 ± 135 mm^3
same,Tumor volume,[1]; Day 21 after the start of treatment,801 ± 152 mm^3
same,Tumor volume,[1]; Day 24 after the start of treatment,1029 ± 193 mm^3
same,Tumor volume,"[1]; Day 27 after the start of treatment, listed as Compound 35",1116 ± 196 mm^3
same,Tumor volume,"[1]; Day 27 after the start of treatment, listed as compound 35",1116 mm^3
same,"RTV (x ± S), relative tumor volume",[1]; [3],8.2 ± 1.1
same,"T/C (%), relative tumor volume",[1]; [3],57.7%
same,"TGI (%), relative tumor volume",[1]; [3],42.3%
same,"T/C (%), tumor weight",[1]; [4],51.3%
same,"TGI, tumor weight",[1]; [4],48.7%
same,Tumor weight (mg) (x ± S),[1]; [4],580 ± 99 mg
same,"anti-tumor effect, in words","[1]; 200 mg/kg, versus solvent control group",significant anti-tumor effects
same,"bioavailability, in words",[2],good bioavailability
same,bioavailability,"[2]; male, rat, plasma, IV 5 mg/kg, PO 100 mg/kg, methanesulfonic acid aqueous solution",39.1%
same,GI50,Karpas-422 (EZH2 Y641N),10 to 100 nM
same,GI50,Pfeiffer (EZH2 A677G),1 to 10 nM
same,GI50,SU-DHL-8 (EZH2 WT),> 1000 nM
